Experimental findings from PubChem BioAssay AID1996 are described below.

In brackets after ≈: the same amount, converted by molar mass.

The term kinetic solubility denotes solubility judged after dilution from a stock solution rather than from solid.

The conditions of this series: buffer; pH 7.4; 200.0 µM.
As for `CCc1nn(CC(=O)Nc2cc(C)ccc2C)c(=N)s1.Cl`, the kinetic solubility was > 49 µg/mL.
As to `O=C(NCCCO)c1cc2ccccc2[nH]1`, the solubility (kinetic) was > 32.7 µg/mL.
For `Cc1ccc(OCc2ccc([N+](=O)[O-])cc2)c([N+](=O)[O-])n1` the value was 1.1 µg/mL (≈ 3.8 µM).
Consider `COC(=O)C(C)Oc1ccc(-c2nccc(-c3ccccn3)n2)cc1` (configuration not stated), for which the solubility (kinetic) was found to be 3.3 µg/mL (≈ 9.84 µM).
Regarding `Cc1c(-n2cccc2C=O)cccc1[N+](=O)[O-]`, the kinetic solubility was > 34.5 µg/mL.
Consider `CNC(=O)COC(=O)/C=C/c1cccs1`, for which the kinetic solubility was > 33.8 µg/mL.
`CCC(=NCc1cccnc1)c1c(O)n(-c2ccc(C)cc2)c(=O)[nH]c1=O` yielded a kinetic solubility of 31.6 µg/mL (≈ 86.7 µM).
Turning to `CCS(=O)(=O)N1CCN=C1SCc1ccc(F)cc1`, the kinetic solubility was 39.9 µg/mL (≈ 132 µM).
On to `Cc1cc(C#N)c(SCC(N)=O)nc1-c1ccc(F)cc1`, for which the solubility (kinetic) was 5.6 µg/mL (≈ 18.6 µM).
On to `O=C(Nc1ncc2c(n1)-c1ccccc1OC2)c1ccc(F)cc1`, for which the solubility (kinetic) came out at 6.1 µg/mL (≈ 19 µM).
Take `O=C(Oc1ccc(Oc2ccccc2)cc1)N1CCC(O)CC1`: the kinetic solubility turned out to be 34.9 µg/mL (≈ 111 µM).
Compound `CC(=O)NCc1ccc(C(=O)COC(=O)COc2ccc(Cl)c(C)c2)s1` returned a kinetic solubility of 38.6 µg/mL (≈ 97.5 µM).
The compound `COc1cccc(NC(=S)N2CCC(c3ccc(C)cc3)C2)c1` (configuration not stated) gave a kinetic solubility of 6.9 µg/mL (≈ 21.1 µM).
For the compound `Cc1ccccc1-n1ccnc1SCC(=O)Nc1cccc(S(=O)(=O)NC2=NCCC2)c1`, the kinetic solubility was > 70.4 µg/mL.
For `Fc1ccc(-c2csc(-c3ccc(C4SCCS4)cc3)n2)cc1F` the value was < 0.8 µg/mL; for `C=CCN1C(=O)C2(OCCCO2)c2cccc(C)c21`, 37.9 µg/mL (≈ 146 µM).
As for `Cc1cccnc1NC(=O)c1ccc(OCc2c(C)noc2C)cc1`, the solubility (kinetic) came to 43.7 µg/mL (≈ 130 µM). The solubility kinetic values of the last two compounds are within 1.5-fold of each other.
The result for `CC12CN3CC(C)(CN(C1)C3c1ccccc1F)C2` (configuration not stated) reads 34.3 µg/mL (≈ 132 µM).
As for `Cc1cc(C)n2nc(SCC(=O)N3CCC(C(=O)O)CC3)nc2n1`, the kinetic solubility is > 52.4 µg/mL.
In the case of `CCn1c(SC(C)C(=O)NCC2CCCO2)nc2ccccc21` (configuration not stated), the kinetic solubility was determined as 49.9 µg/mL (≈ 150 µM).
`CC(C)n1c(=S)[nH]c2cc(Cl)ccc21`: the solubility (kinetic) was 11 µg/mL (≈ 48.5 µM).
Compound `COC(=O)c1ccc(C(=O)OC)c(NC(=O)c2cccnc2)c1` displayed a solubility (kinetic) of 2.3 µg/mL (≈ 7.32 µM).
Take `O=Cc1ccc(OCCOc2ccc([N+](=O)[O-])cc2)cc1`: the kinetic solubility was < 0.6 µg/mL.
`O=C(CCc1ccc(S(=O)(=O)N2CCOCC2)cc1)Nc1ccc(F)c(F)c1F` came in with a solubility (kinetic) of 44.6 µg/mL (≈ 104 µM).
Take `N#C/C(=C\c1ccccn1)c1ccccn1`: the kinetic solubility was > 31.1 µg/mL.
In turn, `COc1ccc2[nH]cc(CCNCc3cccnc3)c2c1.Cl` showed a solubility (kinetic) of 46.2 µg/mL.
On to `CCc1ccccc1OCC(=O)Nc1ccc2c(c1)OCCO2`, for which the solubility (kinetic) came to 15.9 µg/mL (≈ 50.7 µM).
For `COc1ccc(NC(=O)COc2ccc3oc(=O)cc(C)c3c2)cc1`, the kinetic solubility is < 0.7 µg/mL.
Compound `CCCC(=O)Nc1cccc(Oc2ccc3c(c2)C(=O)NC3=O)c1` yielded a solubility (kinetic) of 11.6 µg/mL (≈ 35.8 µM).
For the compound `Cc1ccc(-c2nc(N)s[n+]2-c2ccccc2)cc1.[Br-]`, the solubility (kinetic) stood at 21 µg/mL.
As for `CC(=O)NNC(=O)c1[nH]c2ccc(Br)cc2c1-c1ccccc1`, the solubility (kinetic) was > 55.8 µg/mL.
For the compound `C[C@@H]1C2CC(C/C2=N\NC(=O)c2ccncc2)C1(C)C` (some centres not stated), the kinetic solubility was > 40.7 µg/mL.
Turning to `O=C(Cn1cc([N+](=O)[O-])ccc1=O)Nc1ccc2c(c1)OCO2`, the kinetic solubility came out at 15.8 µg/mL (≈ 49.8 µM).
`O=C(CN1CCCC1)Nc1ccc(Cl)cc1C(F)(F)F`: the solubility (kinetic) was determined as 22.3 µg/mL (≈ 72.7 µM).
On to `CC(=O)NC(C)CCc1ccccc1` (configuration not stated), for which the solubility (kinetic) is > 28.7 µg/mL.
With `CC(C)n1cnnc1SCC(=O)Nc1cccnc1Cl`, the solubility (kinetic) is > 46.8 µg/mL.
With `Cc1cc(C)cc(NS(=O)(=O)c2cccs2)c1`, the solubility (kinetic) was > 40.1 µg/mL.
`Cc1ccc(Nc2nc(C)nc3c2oc2ccccc23)cc1` gave a kinetic solubility of 0.3 µg/mL (≈ 1.04 µM).
As to `Nc1nc(NCCOCCO)nc(NCC2CCCO2)c1[N+](=O)[O-]` (configuration not stated), the solubility (kinetic) was > 51.4 µg/mL.
As to `CC(O)c1cccc(NC(=O)C2CCCCC2)c1` (configuration not stated), the solubility (kinetic) was 25.6 µg/mL (≈ 104 µM).
For `CCOC(=O)c1cnc2c(OC)cccc2c1Oc1ccccc1` the value was 7.2 µg/mL (≈ 22.3 µM); for `CC(=O)Nc1nc2ccccc2n1Cc1ccc(C)cc1`, 8.1 µg/mL (≈ 29 µM).
For `CSc1ccc(C(=O)C2CCCN(C)C2)cc1` (configuration not stated) the value was > 37.4 µg/mL; for `COc1cccc(CNC(=O)CCC(=O)N2CCOCC2)c1`, > 46 µg/mL.
The result for `O=S(=O)(Nc1ccc(Br)cn1)c1cccs1` reads 42.4 µg/mL (≈ 133 µM).
Take `CCOC(=O)c1c(NC(=S)Nc2cccnc2)sc(C)c1C`: the kinetic solubility came to 20.1 µg/mL (≈ 59.9 µM).
For `O=C(NCc1ccccn1)C(=O)Nc1cc2c3c(c1)CC(=O)N3CCC2` the value was > 52.6 µg/mL; for `CC(C)(CNC(=O)c1ccccc1F)CNC(=O)c1ccccc1F`, 51.6 µg/mL (≈ 149 µM).
For `COCCCNC(=S)N/N=C/c1ccc(O)cc1` the value was > 40.1 µg/mL.
For the compound `Cc1ccccc1NC(=O)CSc1nc2ccccc2c(=O)n1C`, the kinetic solubility is 3 µg/mL (≈ 8.84 µM).
The result for `Nc1ccc(S(=O)(=O)[O-])c[nH+]1` reads > 26.1 µg/mL; that for `Cc1ccc2nc(Nc3ccccc3)c(C=O)c(=O)n2c1`, 1.5 µg/mL (≈ 5.37 µM).
